Assay results: publication PMC10999085, “Synthesis, anticancer evaluation, molecular docking and ADME study of novel pyrido[4ʹ,3ʹ:3,4]pyrazolo[1,5-a]pyrimidines as potential tropomyosin receptor kinase A (TrKA) inhibitors” (BMC Chemistry, 2024)
Converted amounts (≈) assume the structure as drawn. “Also recorded” adds a separate entry of the source.

Assays:
[1] = system: MCF7 cell line; assay: MTT assay, MCF7 cell line; type: cell-based, human; conditions: 24 hr treatment, in % (unit assumed); for Cytotoxicity at 5 µg/l: MCF7, 5 µg/l; for Cytotoxicity at 10 µg/l: MCF7, 10 µg/l; for Cytotoxicity at 20 µg/l: MCF7, 20 µg/l
Description: (§1) Determination of the inhibitory effects of compounds on cell growth was performed through the MTT assay. This colorimetric assay is based on the conversion of the yellow tetrazolium bromide (MTT) to a purple formazan derivative by mitochondrial succinate dehydrogenase in viable cells. The protocol was discussed in details in Additional file 1.
(§2) Compounds 1, 4a,b, 7a–c, 7k, l, 9a–c, 14a, 15b, 16a–c were selected to be investigated against three human cancer cell lines MCF7, HepG2 and HCT116 cell lines using MTT assay using doxorubicin as the standard drug. Each point is the mean ± SD (standard deviation) of three independent experiments performed in triplicate, using the prism software program (integrated Graphpad software, version 3).
(§3) Cell lines were used to measure the cell growth effects of the compounds using the MTT assay. This colorimetric assay is depend on the conversion of the yellow tetrazolium bromide (MTT) to a purple formazan derivative by mitochondrial succinate dehydrogenase in living cells. Cell lines were cultured in RPMI-1640 medium supplemented with 10% fetal bovine serum. The antibiotics added were 100 units/ml penicillin and 100 µg/ml streptomycin at 37 °C in a 5% CO2 incubator. Cell lines were seeded in a 96-well plates at a density of 1.0x10^4 cells/well and cultured at 37 °C for 48 h under 5% CO2. After incubation, the cells were treated with different concentrations of compounds and incubated for 24 hr. After 24 hr of drug treatment, 20 µl of MTT solution at 5 mg/ml was added to each well and incubated for 4 hr. 100 µl of dimethyl sulfoxide (DMSO) was added into each well to dissolve the purple formazan formed. The colorimetric assay was measured and recorded at absorbance of 570 nm using a plate reader (EXL 800, USA). Relative cell viability (%) was calculated as (A570 of treated sample/A570 of untreated sample) x 100 [36, 37].

[2] = system: HepG2 cell line; assay: MTT assay, HepG2 cell line; type: cell-based, human; conditions: for Cytotoxicity at 5 µg/l: HepG2, 5 µg/l; for Cytotoxicity at 5 µg/l / Cytotoxicity at 10 µg/l / Cytotoxicity at 20 µg/l: MTT, 24 hr treatment, in % (unit assumed); for Cytotoxicity at 10 µg/l: HepG2, 10 µg/l; for Cytotoxicity at 20 µg/l: HepG2, 20 µg/l
Description: as §1, §2, §3

[3] = system: HCT-116 cell line; assay: MTT assay, HCT-116 cell line; type: cell-based, human; conditions: for Cytotoxicity at 5 µg/l: HCT116, 5 µg/l; for Cytotoxicity at 5 µg/l / Cytotoxicity at 10 µg/l / Cytotoxicity at 20 µg/l: MTT, 24 hr treatment, in % (unit assumed); for Cytotoxicity at 10 µg/l: HCT116, 10 µg/l; for Cytotoxicity at 20 µg/l: HCT116, 20 µg/l
Description: as §1, §2, §3

[4] = molecular target: T1, Tropomyosin receptor kinase A (TrKA) (Homo sapiens, UniProt P04629); assay: Tropomyosin receptor kinase A (TrKA) inhibitory assay (Kinase-Glo MAX kit); type: biochemical; conditions: in vitro kinase assay, recombinant TrkA
T1 construct: purchased
T1 sequence (P04629 33-796): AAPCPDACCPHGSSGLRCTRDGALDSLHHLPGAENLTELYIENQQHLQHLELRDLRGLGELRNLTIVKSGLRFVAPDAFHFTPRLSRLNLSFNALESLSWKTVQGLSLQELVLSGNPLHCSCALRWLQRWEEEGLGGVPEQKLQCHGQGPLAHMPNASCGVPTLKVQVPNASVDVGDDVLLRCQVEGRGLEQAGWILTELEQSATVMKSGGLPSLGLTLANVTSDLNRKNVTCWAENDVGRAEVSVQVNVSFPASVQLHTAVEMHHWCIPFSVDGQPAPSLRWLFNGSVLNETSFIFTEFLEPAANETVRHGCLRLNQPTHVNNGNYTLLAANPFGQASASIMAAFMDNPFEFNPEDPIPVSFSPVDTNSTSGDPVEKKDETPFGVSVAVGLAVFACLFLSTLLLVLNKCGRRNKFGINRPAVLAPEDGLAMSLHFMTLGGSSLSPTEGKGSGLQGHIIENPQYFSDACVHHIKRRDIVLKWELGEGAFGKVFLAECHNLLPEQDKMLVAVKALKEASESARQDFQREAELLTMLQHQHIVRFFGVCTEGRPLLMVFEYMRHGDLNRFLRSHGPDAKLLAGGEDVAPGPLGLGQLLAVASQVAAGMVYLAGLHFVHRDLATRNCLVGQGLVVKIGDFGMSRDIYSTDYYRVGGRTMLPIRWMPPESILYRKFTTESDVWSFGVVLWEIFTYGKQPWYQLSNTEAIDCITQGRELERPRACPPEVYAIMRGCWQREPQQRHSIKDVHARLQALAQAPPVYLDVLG
Excerpt: The TrkA assay Kit is designed to measure TrkA activity for screening and profiling applications using Kinase-Glo® MAX as a detection reagent. The TrkA Assay Kit comes in a convenient 96-well format, with enough purified recombinant TrkA enzyme, TrkA substrate, ATP and kinase assay buffer for 100 enzyme reactions. The method was discussed in details in the ESI.
The TrkA assay Kit is designed to measure TrkA activity for screening and profiling applications using Kinase-Glo® MAX as a detection reagent. The TrkA Assay Kit comes in a convenient 96-well format, with enough purified recombinant TrkA enzyme, TrkA substrate, ATP and kinase assay buffer for 100 enzyme reactions.
The assay protocol: all samples and controls should be tested in duplicate. Dissolve 5x Kinase Assay Buffer 1, ATP, and PTK Substrate Poly (Glu:Tyr 4:1) (10 mg/ml). 2). The master mixture (25 μl per well) was prepared by N wells x (6 μl 5x Kinase Assay Buffer 1 + 1 μl ATP (500 μM) + 1 μl PTK Substrate Poly (Glu:Tyr 4:1) (10mg/ml) + 17 μl water). Add 5 μl of Inhibitor solution of each well labeled as “Test Inhibitor”. For the “Positive Control" and “Blank”, add 5 μl of the same solution without inhibitor (Inhibitor buffer). Prepare 3 ml of 1x Kinase assay buffer 1 by mixing 600 μl of 5x Kinase assay buffer 1 with 2400 μl water 3 ml of 1x Kinase assay buffer is sufficient for 100 reactions. To the wells designated as "Blank", add 20 μl of 1x Kinase assay buffer 1and thaw TrkA enzyme on ice. Upon first thaw, briefly spin tube containing enzyme to recover full content of the tube. Calculate the amount of TrkA required for the assay and dilute enzyme to 5 ng/μl with 1x Kinase assay buffer. Store remaining undiluted enzyme in aliquots at -80°C. Then initiate reaction by adding 20 μl of diluted TrkA enzyme to the wells designated “Positive Control” and "Test Inhibitor Control". Incubate at 30°C for 45minutes and thaw Kinase-Glo Max reagent. After the 45 minute reaction, add 50 μl of Kinase-Glo Max reagent to each well. Cover plate with aluminum foil and incubate the plate at room temperature for 15 minutes. Immediately read sample in a luminometer or microtiter-plate capable of reading chemiluminescence. “Blank” value is subtracted from all readings.

[5] = system: Trk family; parameters: method as in earlier work; conditions: cited from earlier work
[6] = system: HepG2 cells; assay: In-vitro cell cycle analysis (PI flow cytometry); type: cell-based, human
Description: HepG-2 cells are pre-cultured in 25 cm^2 cell culture flask. RPMI-1640 medium was used. Tested compounds 7b, 9c, 15b, 16a and 16c were used in the cell treatment at their IC50 by dissolving them in the required medium separately. The procedure was discussed in details in the ESI.
For cell cycle analysis, stained DNA from HepG2 cancer cells was treated with compounds 7b, 15b, 16a and 16c that induce cancer cell death by inhibiting TrKA. From the results in Table 5, it can be seen that the proportion of cells at phase in the pre-G1 of compounds 7b, 15b, 16a and 16c increased the proportion of cells at phase in the G2/M by about 4, 4, 2.5 and 3 folds, respectively.
HepG-2 cells were pre-cultured in 25 cm^2 cell culture flasks; RPMI-1640 medium was used. Tested compounds 7b, 15b, 16a and 16c were dissolved separately in the required medium and used in the cell treatment at their IC50. After overnight treatment the cells were collected and fixed gently with 70% (v/v) ethanol in PBS, incubated overnight at 4 °C, and resuspended in PBS containing 40 µg/ml propidium iodide (PI), 0.1 mg/ml RNase and 0.1% (v/v) Triton X-100 in the dark room at after 30 min at 37 °C, the cell cycle analysis was performed using a flow cytometer, equipped with an argon ion laser at a wavelength of 488 nm (Becton-Dickinson, San Josa, CA, USA) and the percentage of cells at G1, S and G2/M was also calculated.

[7] = system: HepG2 cells; assay: Annexin V-FITC apoptosis assay; type: cell-based, human
Description: HepG-2 cells were harvested and incubated with compounds 7b, 15b, 16a and 16c separately for 48 h. Then, the cells were collected and washed with PBS two successive times followed by centrifugation. After that, the cells were treated with Annexin V-FITC and propidium iodide (PI) using the apoptosis detection kit (BD Biosciences and Annexin V-FITC and PI binding were analyzed by a flow cytometer.
Early and late apoptosis was determined after treatment of HepG2 cells with compounds 7b, 15b, 16a and 16c compared with untreated control cells. The late apoptosis rate increased by about 13, 20, 4 and 3 times, respectively, showing a higher efficiency than the early apoptosis ratio 5, 2, 8 and 6 times, respectively.
As mentioned above, HepG-2 cells were collected and incubated separately with compounds 7b, 15b, 16a and 16c for 48 hr. Cells were then collected and washed twice consecutively with PBS and centrifuged. After that, the cells were treated with Annexin V-FITC and propidium iodide (PI) using an apoptosis detection kit (BD Biosciences, San Jose, CA) according to the manufacturer's instructions. The biding of Annexin V-FITC and PI was analyzed by ﬂow cytometer.

[8] = HepG2, compared with untreated control cells

SMILES | Cytotoxicity at 5 µg/l [1] | Cytotoxicity at 10 µg/l [1] | Cytotoxicity at 20 µg/l [1] | Cytotoxicity at 5 µg/l [2] | Cytotoxicity at 10 µg/l [2] | Cytotoxicity at 20 µg/l [2] | Cytotoxicity at 5 µg/l [3] | Cytotoxicity at 10 µg/l [3] | Cytotoxicity at 20 µg/l [3] | IC50 [4] [µM] | melting point [°C] | further results
COc1ccc(N/N=C2\C(=O)NC(=O)c3c2nn2c(C)cc(C)nc32)cc1 [Compound 9c, 7-(2-(4-Methoxyphenyl)hydrazono)-2,4-dimethylpyrido[4ʹ,3ʹ:3,4]pyrazolo[1,5-a]pyri-midine-8,10(7H,9H)-dione] | 38.17 | 53.72 | 87.32 | 42.88 | 50.63 | 86.55 | 59.74 | 67.13 | 89.80 | 0.434 | 305 | –
O=C(Nc1cnn2ccc(N3CCC[C@@H]3c3cc(F)ccc3F)nc12)N1CC[C@H](O)C1 [Larotrectinib] | – | – | – | – | – | – | – | – | – | – | – | IC50 [5]: 0.002 to 0.02 µM
COc1ccc(C=C2C(=O)NC(=O)c3c2nn2c(O)cc(C)nc32)cc1 [Compound 15b, 4-Hydroxy-7-(4-methoxybenzylidene)-2-methylpyrido[4ʹ,3ʹ:3,4]pyrazolo[1,5-a]pyrimidine-8,10(7H,9H)-dione] | 28.52 | 62.92 | 83.62 | 49.48 | 75.98 | 78.66 | 26.10 | 66.87 | 84.20 | 0.288 | – | IC50 ([2]; Homo sapiens, HepG2, MTT, read-out: IC50 (drug concentration that inhibited 50% of cell proliferation)): 4.64 ng/mL (≈ 0.0132 µM); Cell cycle comment (phase of arrest) ([6]; HepG2): arrested in the cell cycle at G2/M phase; also recorded: arrest in cell cycle at the G2/M phase; also recorded: cell growth arrest@G2/M; DNA content %G0-G1 ([6]; HepG2, compound at its IC50): 33.57%; DNA content %G2/M ([6]; HepG2, compound at its IC50): 36.72%; DNA content %Pre-G1 ([6]; HepG2, compound at its IC50): 32.51%; DNA content %S ([6]; HepG2, compound at its IC50): 29.71%; increase of the proportion of cells in the G2/M phase ([6]; HepG2, versus control): about 4 folds; Apoptosis Early ([7]; HepG2, 48 h, Annexin V-FITC/PI): 2.93%; Apoptosis Late ([7]; HepG2, 48 h, Annexin V-FITC/PI): 20.12%; Necrosis ([7]; HepG2, 48 h, Annexin V-FITC/PI): 9.46%; apoptosis-inducing effect ([7]; HepG2, as stated in the abstract): 36.72%; increase of early apoptosis ratio [7, 8]: 2 times; increase of late apoptosis rate [7, 8]: ~20 times
Cc1cc(C)n2nc3c(c2n1)C(=O)NC(=O)C3=NNc1ccccc1 [Compound 9a, 2,4-Dimethyl-7-(2-phenylhydrazono)pyrido[4ʹ,3ʹ:3,4]pyrazolo[1,5-a]pyrimidine-8,10(7H,9H)-dione] | 36.10 | 49.11 | 75.34 | 13.11 | 49.16 | 79.17 | 34.38 | 55.47 | 65.98 | – | 300 | –
Cc1cc(C)n2nc3c(c2n1)C(=O)NC(=O)C3=Cc1ccc(Cl)cc1 [Compound 7c] | 40.12 | 69.00 | 92.48 | 35.08 | 41.65 | 67.89 | 50.56 | 68.21 | 68.85 | – | 260 | IC50 ([3]; Homo sapiens, HCT-116, HCT116, MTT, read-out: IC50 (drug concentration that inhibited 50% of cell proliferation)): 4.07 ng/mL (≈ 0.0115 µM)
COc1ccc(C=C2C(=O)NC(=O)c3c2nn2c(-c4ccccc4)cc(-c4ccccc4)nc32)cc1 [Compound 7l] | 40.19 | 52.28 | 97.26 | 40.25 | 71.84 | 96.62 | 57.14 | 61.58 | 91.59 | – | 315 | –
